Data on 1 compound can be found in US20150133493A1, “COUMARIN-BASED COMPOUNDS FOR THE TREATMENT OF ALZHEIMER'S DISEASE AND CANCER” (Sloan-Kettering Institute for Cancer Research, priority 2008, published 2015).

For assay [1], the system named is HEK-293 cells transfected with ΔE Notch construct. Put plainly: Cell-based Notch cleavage assay (NICD production). The following applies: HEK-293, ΔE Notch, 24 hrs; Western blot; CS-1 up to 30 μM. The procedure: FIG. 3. Cellular evaluation of the coumarin-dimer CS-1 and its selective inhibition of Aβ42. Compounds were incubated with the APPsw-N2A mouse neuroblastoma cells for 24 hours and media were analyzed by biotinylated 4G8 and ruthenylated antibodies specific for each respective cleavage product. […] (d) Immunoprecipitation mass spectrometry analysis of CS-1 effect on secreted β-amyloid species. Aβ peptides were immunoprecipitated using 4G8 antibody and isolated with Protein G+/A agarose beads. Samples were analyzed by MALDI-MS. Samples shown are representative and each data point was performed in triplicate. (e) Cell-based Notch cleavage assay. HEK-293 cells were transfected with ΔE Notch construct and then Compound E and CS-1 were evaluated for their ability to inhibit γ-secretase-mediated Notch intracellular domain production. […] The generated AICD and APP-CTFs were detected by Western Blotting using APPc antibody. […]
We next determined the ability of CS-1 to suppress cellular γ-secretase activity for Notch1 cleavage. […]
ΔE Notch or empty pcDNA3.1(−) construct was transfected into HEK-293 cells in a 6-well format using Lipofectamine reagent, following manufacturer's instructions. […] Samples were then centrifuged at 13,000 rpm's at 4° C. and the supernatent was collected and analyzed by Western analysis using either anti-Myc antibody at a 1:1000 dilution or anti-NICD-1 SM320 at a 1:500 dilution.
(In general: A western blot detects proteins with antibodies after separation by electrophoresis.)

The subject of assay [2] is N2a mouse neuroblastoma cells that stably express Swedish-mutated APP. Put plainly: Cell-based assay of secreted Aβ42, Aβ40, Aβ38 in APPsw-N2A cells. The note with it: 24 hrs, in words, CS-1 up to 30 μM. The procedure: FIG. 3. Cellular evaluation of the coumarin-dimer CS-1 and its selective inhibition of Aβ42. Compounds were incubated with the APPsw-N2A mouse neuroblastoma cells for 24 hours and media were analyzed by biotinylated 4G8 and ruthenylated antibodies specific for each respective cleavage product. […] (d) Immunoprecipitation mass spectrometry analysis of CS-1 effect on secreted β-amyloid species. Aβ peptides were immunoprecipitated using 4G8 antibody and isolated with Protein G+/A agarose beads. Samples were analyzed by MALDI-MS. Samples shown are representative and each data point was performed in triplicate. (e) Cell-based Notch cleavage assay. HEK-293 cells were transfected with ΔE Notch construct and then Compound E and CS-1 were evaluated for their ability to inhibit γ-secretase-mediated Notch intracellular domain production. […] Western blot is representative and was performed in triplicate. (f) Effect of CS-1 on AICD production. N2A APPsw cell membrane was prepared and incubated with the indicated concentrations of CS-1 at 37° C. for 2 hours. The generated AICD and APP-CTFs were detected by Western Blotting using APPc antibody. Western blot is representative and was performed in triplicate.
We next set out to determine if the selective inhibition of Aβ42 was maintained in a cell-based system for APP processing. First, we compared our lead compound CS-1 (FIG. 3a) to Compound E (FIG. 3b) and the GSM compound indomethacin (FIG. 3c). N2a mouse neuroblastoma cells that stably express Swedish-mutated APP substrate were treated with the indicated compounds for 24 hrs at 37° C. Following 24 hr incubation period, the medium was collected from the cells and assayed for secreted Aβ42, Aβ40, and Aβ38. […] The result for indomethacin mirrored those findings by Kukar et al. whereby a different cell-based system was utilized (17), further validating our assay system for analysis of these Aβ species. […] This may reflect subtle variations between the cellular and in vitro conformations of γ-secretase. Nevertheless, the cell-based studies confirmed that CS-1 maintains a preference for inhibition of the γ-secretase mediated production of Aβ42 over Aβ40 or Aβ38, which is distinct to previously reported GSMs (17) and inhibitors (14-15, 18).
Cell membranes and solubilized γ-secretase were prepared as described previously (36). The in vitro and cell γ-secretase assays detecting either Aβ38, Aβ40, or Aβ42 cleavage were performed similar as previously described (21, 36). Cleaved product was detected using ruthenylated antibodies that recognize specific APP cleavage sites (Aβ31-38*, G2-10*, or G2-11* antibody for Aβ38, Aβ40, or Aβ42 respectively). The Km and Vmax in the presence and absence of γ-secretase inhibitors were analyzed by non-linear curve fit using the software SigmaPlot 8.0 with the Michaelis-Menten equation (v=Vm [S]/(Km+[S]; v: initial rate; Vm: maximum velocity; Km: the Michaelis-Menten constant, S: substrate).

Structures are written as SMILES. Entries after “also recorded” stand apart in the source; their conditions may differ.

Take `C[C@H](NC(=O)Cc1cc(F)cc(F)c1)C(=O)N[C@H]1N=C(c2ccccc2)c2ccccc2N(C)C1=O` [Compound E]: in assay [1], the “effect on Notch intracellular domain (NICD) production” value is given as “able to prevent production of NICD; also recorded: effectively blocked all production”. Also, in assay [2], the “effect on secreted Aβ38 production” value is reported as “no inhibitory selectivity; also recorded: inhibited the production of all three β-amyloid species with equal potency”, the “effect on secreted Aβ40 production” value is “no inhibitory selectivity; also recorded: inhibited the production of all three β-amyloid species with equal potency” and the “effect on secreted Aβ42 production” value is “no inhibitory selectivity; also recorded: inhibited the production of all three β-amyloid species with equal potency”.
